Legend:
[1] = from NCc1cncc(-c2ccc3[nH]nc(C(=O)Nc4cncc(-c5cccc(CCC(=O)O)c5)c4)c3c2)c1; amide bond; 20-membered ring; HATU/DIEA/DMAP; DMF; 20.0 mM; 37.0 °C
[2] = target: recombinant GSK3β kinase (Homo sapiens (Human), UniProt P49841); test: GSK3β kinase assay (Ser/Thr 09 peptide Z-lyte, FRET); type: biochemical; settings: 46 μM ATP, one hour at room temperature, read-out: EC50 (μM) (IC50 per method)
From the text: Representative compounds were screened using the assay procedure for GSK3β kinase activity as described below.
The GSK3β kinase assay is run using the Ser/Thr 09 peptide Z-lyte assay kit according to manufacturer's instructions (Life Technologies—a Division of Thermo-Fisher). This is a non-radioactive assay using fluorescence resonance energy transfer (FRET) between coumarin and fluorescein to detect kinase activity which is represented as ratio of coumarin emission/fluorescein emission.
Briefly, recombinant GSK3β kinase, ATP and Ser/Thr peptide 09 are prepared in 1× Kinase buffer to final concentrations of 0.04 μg/mL, 46 μM, and 4 μM respectively. The mixture is allowed to incubate with the representative compounds for one hour at room temperature. All reactions were performed in duplicate. Unphosphorylated (“0% Control”) and phosphorylated (“100% control”) forms of […] serve as control reactions.
After incubation, diluted Development Buffer is added to the reaction and allowed to further incubate for one hour at room temperature. The plate is read at Ex 400 Em 455 to detect the coumarin signal and Ex 400 Em 520 to measure the signal (EnVision Multilabel Plate Reader, PerkinElmer).
The Emission ratio (Em) is calculated as a ratio of the coumarin (C) emission signal (at 445 nm)/Fluorescein (F) emission signal (at 520 nm). The percent phosphorylation is then calculated using the following formula: [1−((Em ratio×F100%)−C100%)/((C0%−C100%)+(Em ratio×(F100%−F0%)))].
Dose-response curves are generated and inhibitory concentration (IC50) values are calculated using non-linear regression curve fit in the Dotmatics' Studies Software (Bishops Stortford, UK).

[3] = tested on: primary human fibroblasts derived from IPF patients (LL29 cells); test: Inhibition of TGF-β1 induced fibrosis (αSMA staining) in LL29 fibroblasts; type: cell-based; settings: Fibroblast, 96 h, LL29 cells, TGF-β1 20 ng/mL, 4 days, % αSMA positive cells
Protocol: Representative compounds were screened using primary human fibroblasts (derived from IPF patients) treated with TGF-β1 to determine their ability to inhibit the fibrotic process.
LL29 cells were plated at 1,500 cells/well in 70 μL/well F12 medium supplemented with 1% Fetal Bovine Serum. […] Wells treated with TGF-β1 and containing DMSO were used as positive control, and cells with only DMSO were negative control. […] Following incubation for 4 days, SYTOX green nucleic acid stain (Life Technologies [Thermo Fisher Scientific]) was added to the wells at a final concentration of 1 μM and incubated at room temperature for 30 min.

[4] = tested on: IL-6; test: IL-6 inhibition in LPS-stimulated human PBMCs (HTRF); type: cell-based; settings: PBMC
Protocol: Fresh Normal PB MNC (Catalog # PB001, AllCells, Alameda, Calif.) were shipped overnight at 4° C. and resuspended in Roswell Park Memorial Institute (RPMI) 1640 Medium, with GlutaMAX Supplement (Catalog #61870127, ThermoFisher Scientific, Waltham, Mass.) supplemented with 1% Penicillin-Streptomycin (Catalog #15140163, ThermoFisher Scientific, Waltham, Mass.) and 1% fetal bovine serum (FBS) (Catalog #16140089, ThermoFisher Scientific, Waltham, Mass.) assay media.
Compound Screening: Fresh normal human peripheral blood mononuclear cells (huPBMCs) were resuspended in 1% FBS-RPMI assay media with 1% Penicillin-Streptomycin 1% to a cell concentration of 1×10e6 cells/mL. […] 50 ng/mL of Lipopolysaccharides from Escherichia coli 0111:B4 (Catalog # L5293-2ML, Sigma-Aldrich, St. Louis, Mo.) was added after 2 hours and cells were incubated for another 22 hours at 37° C.-5% CO2. After 22 hour incubation, a mixture of anti-IL6 XL665 and anti-IL-6 Cryptate diluted in reconstitution buffer (Catalog #62IL6PEC, Cisbio Inc., Bedford, Mass.) was added to each well. Following incubation for 3 hours at room temperature, Homogeneous Time-Resolved Fluorescence (HTRF) was measured using the Envision (Perkin Elmer, Shelton, Conn.) at 665 nm and […]. The ratio of fluorescence at 665 nm to 620 nm was used as a readout for IL-6 quantification. All samples were processed in duplicate. Readings were normalized to DMSO treated cells and normalized activities were utilized for EC50 calculations. EC50 was determined using software generated by Dotmatics Limited (Windhill Bishops Stortford Herts, UK) using the Levenberg-Marquardt 4 parameter fitting procedure with finite different gradients.

recombinant GSK3β kinase, sequence (P49841 whole entry): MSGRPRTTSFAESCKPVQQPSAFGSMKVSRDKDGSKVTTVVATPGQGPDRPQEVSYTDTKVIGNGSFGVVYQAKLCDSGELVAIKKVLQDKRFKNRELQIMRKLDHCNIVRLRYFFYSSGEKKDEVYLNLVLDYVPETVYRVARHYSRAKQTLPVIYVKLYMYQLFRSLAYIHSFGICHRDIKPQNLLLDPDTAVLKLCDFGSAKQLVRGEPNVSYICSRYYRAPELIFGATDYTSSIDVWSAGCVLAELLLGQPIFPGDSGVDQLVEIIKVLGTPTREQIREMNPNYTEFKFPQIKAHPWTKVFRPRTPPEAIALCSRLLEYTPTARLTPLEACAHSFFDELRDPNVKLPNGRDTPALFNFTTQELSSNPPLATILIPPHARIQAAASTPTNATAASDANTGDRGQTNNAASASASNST

With `O=C1CCc2cccc(c2)-c2cncc(c2)NC(=O)c2n[nH]c3ccc(cc23)-c2cncc(c2)CN1` [Compound 97, 2^1H-4,10-diaza-2(5,3)-indazola-1,5(3,5)-dipyridina-6(1,3)-benzenacycloundecaphane-3,9-dione] the ring closure, isolated yield [1] was 20.8%, the IC50 [2] was 0.01 µM and the EC50 [3] was 0.406 µM. For the same molecule, the EC50 ([4]; huPBMCs, LPS 50 ng/mL, 22 hours, IL-6 HTRF) was > 10 µM and the inhibition at 10 µM ([4]; read-out: percent inhibition at 10 μM) was 25.7%.

— patent US10759799B2, “Indazole containing macrocycles and therapeutic uses thereof” (Samumed, LLC, priority 2018, dated 2020)
